Data published in patent EP4488270A1, “TRIAZOLE COMPOUNDS FOR THE CONTROL OF INVERTEBRATE PESTS” (priority 2023, dated 2025).

Key:
Format in all cases: in vivo
[1] = system: Southern armyworm (Spodoptera eridania), 2nd instar larvae; assay: Southern armyworm foliar spray test on lima bean plants; conditions: 96 h, 4 days after treatment, read-out: mortality in comparison with untreated controls
Procedure: B.4. Southern armyworm (Spodoptera eridania), 2nd instar larvae
The active compounds were formulated by a Tecan liquid handler in 100% cyclohexanone as a 10,000-ppm solution supplied in tubes. The 10,000-ppm solution was serially diluted in 100% cyclohexanone to make interim solutions. These served as stock solutions for which final dilutions were made by the Tecan in 50% acetone:50% water (v/v) into 10 or 20ml glass vials. A non-ionic surfactant (Kinetic®) was included in the solution at a volume of 0.01% (v/v). The vials were then inserted into an automated electrostatic sprayer equipped with an atomizing nozzle for application to plants/insects. Lima bean plants (variety Sieva) were grown 2 plants to a pot and selected for treatment at the 1st true leaf stage. Test solutions were sprayed onto the foliage by an automated electrostatic plant sprayer equipped with an atomizing spray nozzle. The plants were dried in the sprayer fume hood and then removed from the sprayer. Each pot was placed into perforated plastic bags with a zip closure. Ten to 11 armyworm larvae were placed into the bag and the bags zipped closed. […] Mortality and reduced feeding were assessed 4 days after treatment, compared to untreated control plants.

[2] = system: boll weevil (Anthonomus grandis); assay: Boll weevil test, insect diet with eggs in 96-well microtiter plates; conditions: 120 h, read-out: mortality in comparison with untreated controls
Procedure: B.3 Boll weevil (Anthonomus grandis)
For evaluating control of boll weevil (Anthonomus grandis), the test unit consisted of 96-well-microtiter plates containing an insect diet and 5-10 A. grandis eggs.
The compounds were formulated using a solution containing 75% v/v water and 25% v/v DMSO. Different concentrations of formulated compounds were sprayed onto the insect diet at 5µl, using a custom-built micro atomizer, at two replications.
After application, microtiter plates were incubated at about 25 ± 1°C and about 75 ± 5 % relative humidity for 5 days. Egg and larval mortality was then visually assessed.

[3] = system: tobacco budworm (Heliothis virescens); assay: Tobacco budworm test, insect diet with eggs in 96-well microtiter plates; conditions: 120 h, egg and larval mortality, 5 days, about 28 ± 1°C, read-out: mortality in comparison with untreated controls
Procedure: B.2 Tobacco budworm (Heliothis virescens)
For evaluating control of tobacco budworm (Heliothis virescens), the test unit consisted of 96-well-microtiter plates containing an insect diet and 15-25 H. virescens eggs.
The compounds were formulated using a solution containing 75% v/v water and 25% v/v DMSO. Different concentrations of formulated compounds were sprayed onto the insect diet at 10µl, using a custom-built micro atomizer, at two replications.
After application, microtiter plates were incubated at about 28 ± 1°C and about 80 ± 5 % relative humidity for 5 days. Egg and larval mortality was then visually assessed.

[4] = system: Orchid thrips (Dichromothrips corbetti); assay: Orchid thrips floral-immersion test; conditions: adult thrips on dipped orchid petals, 72 hours after treatment, read-out: mortality in comparison with untreated controls
Procedure: B.6 Orchid thrips (Dichromothrips corbetti)
Dichromothrips corbetti adults used for bioassay are obtained from a colony maintained continuously under laboratory conditions. For testing purposes, the test compound is diluted in a 1:1 mixture of acetone:water (vol:vol), plus Kinetic at a rate of 0.01% v/v.
Thrips potency of each compound is evaluated by using a floral-immersion technique. Each orchid petal is dipped into treatment solution and allowed to dry in Petri dishes. Treated petals are placed into individual re-sealable plastic along with about 20 adult thrips. All test arenas are held under dark condition and a temperature of about 28°C for duration of the assay. The percent mortality is recorded 72 hours after treatment.

[5] = system: yellow fever mosquito (Aedes aegypti); assay: whole plant or invertebrate; conditions: 48 h, larval mortality, 2 days, 28 ± 1°C, read-out: mortality in comparison with untreated controls
Procedure: B.5 Yellow fever mosquito (Aedes aegypti)
For evaluating control of yellow fever mosquito (Aedes aegypti) the test unit consisted of 96-well-microtiter plates containing 200µl of tap water per well and 5-15 freshly hatched A. aegypti larvae.
The active compounds were formulated using a solution containing 75% (v/v) water and 25% (v/v) DMSO. Different concentrations of formulated compounds or mixtures were sprayed onto the insect diet at 2.5µl, using a custom-built micro atomizer, at two replications.
After application, microtiter plates were incubated at 28 ± 1°C, 80 ± 5 % RH for 2 days. Larval mortality was then visually assessed.

[6] = system: green peach aphid (Myzus persicae); assay: Green peach aphid systemic test, artificial diet under membrane in 96-well microtiter plates; conditions: 72 h, adult aphids on treated diet, 3 days, about 23 ± 1°C, read-out: mortality in comparison with untreated controls
Description: B.1 Green Peach Aphid (Myzus persicae)
For evaluating control of green peach aphid (Myzus persicae) through systemic means, the test unit consisted of 96-well-microtiter plates containing liquid artificial diet under an artificial mem brane.
The compounds were formulated using a solution containing 75% v/v water and 25% v/v DMSO. Different concentrations of formulated compounds were pipetted into the aphid diet, using a custom built pipetter, at two replications.
After application, 5 - 8 adult aphids were placed on the artificial membrane inside the microtiter plate wells. The aphids were then allowed to suck on the treated aphid diet and incubated at about 23 ± 1°C and about 50 ± 5 % relative humidity for 3 days. Aphid mortality and fecundity was then visually assessed.

CC(NC(=O)c1cc(C(F)(F)F)cc(C(F)(F)F)c1)c1nccnc1-c1ncn(C2(C(N)=O)CC2)n1 (stereo not drawn) [I-2, N-[1-[3-[1-(1-carbamoylcyclopropyl)-1,2,4-triazol-3-yl]pyrazin-2-yl]ethyl]-3,5-bis(trifluoromethyl)benzamide]
≥ 75%: mortality at 300 ppm [1] | mortality at 2500 ppm [2] | mortality at 2500 ppm [3] | mortality at 300 ppm [4] | mortality at 2500 ppm [5] | mortality at 2500 ppm [6]

CC(NC(=O)c1cc(C(F)(F)F)cc(C(F)(F)F)c1)c1nccnc1-c1ncn(C2(C#N)CC2)n1 (stereo not drawn) [I-3, N-[1-[3-[1-(1-cyanocyclopropyl)-1,2,4-triazol-3-yl]pyrazin-2-yl]ethyl]-3,5-bis(trifluoromethyl)benzamide]
≥ 75%: mortality at 300 ppm [1] | mortality at 2500 ppm [2] | mortality at 2500 ppm [3] | mortality at 300 ppm [4] | mortality at 2500 ppm [5] | mortality at 2500 ppm [6]
